Common to all, as to experiment: relative viability (nuclei count vs DMSO), 5 days (fraction); higher = more cells survive
Compound in assay [1]: CC1=CC(=NN1)NC2=CC(=NC(=N2)/C=C/C3=CC=CC=C3)N4CCN(CC4)C + O=C(c1cc(Cc2n[nH]c(=O)c3ccccc23)ccc1F)N1CCN(C(=O)C2CC2)CC1 [Olaparib] (partner 8 µM)
The essentials:
(§1)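 Each reported value is a median over duplicate plates. It expresses relative viability: treated-well nuclei count divided by vehicle-well nuclei count. Lung cancer cell lines in 1536-well plates were dosed by pin tool a day after seeding, alone with one drug or with a fixed anchor-drug dose plus five library-drug doses (not always all listed) in √10 steps, and nuclei were counted after 5 days.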

Compound in assay [2]: CC1=CC(=NN1)NC2=CC(=NC(=N2)/C=C/C3=CC=CC=C3)N4CCN(CC4)C + Nc1nc2[nH]cc(CCc3ccc(C(=O)N[C@@H](CCC(=O)O)C(=O)O)cc3)c2c(=O)[nH]1 [Pemetrexed] (partner 0.2 µM)
An outline of the steps: as §1

Compound in the assay “Obatoclax + Decitabine”: COC1=CC(c2cc3ccccc3[nH]2)=N/C1=C\c1[nH]c(C)cc1C [Obatoclax] + Nc1ncn([C@H]2C[C@H](O)[C@@H](CO)O2)c(=O)n1 [Decitabine] (partner 2 µM)
The essentials: as §1

Compound in the assay “Obatoclax + AZD7762”: COC1=CC(c2cc3ccccc3[nH]2)=N/C1=C\c1[nH]c(C)cc1C [Obatoclax] + NC(=O)Nc1cc(-c2cccc(F)c2)sc1C(=O)N[C@H]1CCCNC1 [AZD7762] (partner 0.2 µM)
The essentials: as §1

As to NCI-H650, the relative viability in assay [1] (first compound 0.08 µM) turned out to be 0.376; in assay [1] (first compound 0.253 µM) it was 0.431; in assay [1] (first compound 0.8 µM) it was 0.416; in assay [1] (first compound 2.53 µM) it was 0.344; in assay [1] (first compound 8 µM), 0.136; in assay [2] (first compound 0.08 µM), 1.01. The relative viability in assay [2] (first compound 0.253 µM) was 1.08; in assay [2] (first compound 0.8 µM), 1.01; in assay [2] (first compound 2.53 µM), 0.727; in assay [2] (first compound 8 µM), 0.307; in the assay with Obatoclax + Decitabine (first compound 0.01 µM) it was 0.299; with Obatoclax + Decitabine (first compound 0.03162 µM) it was 0.312. The relative viability with Obatoclax + Decitabine (first compound 0.3162 µM) was determined as 0.237; with Obatoclax + Decitabine (first compound 1 µM) it was 0.217; with Obatoclax + AZD7762 (first compound 0.01 µM), 0.998; with Obatoclax + AZD7762 (first compound 0.03162 µM), 0.925; with Obatoclax + AZD7762 (first compound 0.3162 µM), 0.513; in the assay with Obatoclax + AZD7762 (first compound 1 µM), 0.324.

These data come from the supplement of paper PMC10307832.
